According to ChEMBL document CHEMBL3232788, “1-(2-Hydroxy-2-methyl-3-phenoxypropanoyl)indoline-4-carbonitrile derivatives as potent and tissue selective androgen receptor modulators” (J Med Chem, 2014):
Converted amounts (≈) assume the structure as drawn. The source made the active and inactive calls. The rule behind the calls is not given here.

How the values were obtained:
Rattus norvegicus [1] = test: Toxicity in Sprague-Dawley rat assessed as effect on serum total cholesterol level at 3 to 100 mg/kg, sc qd for 14 days relative to vehicle-treated control; type: organism-based; set-up: dose 3-100 mg/kg, route subcutaneous; details: in vivo, 336 h
Rattus norvegicus [2] = test: Toxicity in Sprague-Dawley rat assessed as effect on serum LDL level at 3 to 100 mg/kg, sc qd for 14 days relative to vehicle-treated control; type: organism-based; set-up: dose 3-100 mg/kg, route subcutaneous; details: in vivo, 336 h
[3] = AUC in Sprague-Dawley rat at 10 mg/kg, sc; type: ADME, organism-based; set-up: dose 10 mg/kg, route subcutaneous; details: plasma
[4] = Half life in Sprague-Dawley rat at 6 mg/kg, po; type: ADME, organism-based; set-up: dose 6 mg/kg, route oral; details: in vivo
Cytochrome P450 2C9 = Cytochrome P450 2C9 (Homo sapiens, UniProt P11712); test: Inhibition of CYP2C9 (unknown origin) at 3 uM; type: ADME
Cytochrome P450 2C9, sequence (P11712 whole entry): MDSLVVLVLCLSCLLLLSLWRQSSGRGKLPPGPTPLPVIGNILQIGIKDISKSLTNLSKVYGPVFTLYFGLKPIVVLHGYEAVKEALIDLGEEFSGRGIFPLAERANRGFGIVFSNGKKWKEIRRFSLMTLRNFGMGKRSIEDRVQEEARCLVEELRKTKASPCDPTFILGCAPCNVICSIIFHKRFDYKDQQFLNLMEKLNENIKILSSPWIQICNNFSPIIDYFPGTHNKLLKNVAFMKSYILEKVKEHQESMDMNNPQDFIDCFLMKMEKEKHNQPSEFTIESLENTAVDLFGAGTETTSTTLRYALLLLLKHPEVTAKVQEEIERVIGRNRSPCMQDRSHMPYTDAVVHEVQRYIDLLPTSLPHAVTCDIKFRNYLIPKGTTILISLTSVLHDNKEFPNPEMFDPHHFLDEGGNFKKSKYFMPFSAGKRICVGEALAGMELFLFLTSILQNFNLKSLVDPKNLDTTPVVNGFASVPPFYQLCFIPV

Cytochrome P450 1A2 = molecular target: T1, Cytochrome P450 1A2 (Homo sapiens, UniProt P05177); test: Inhibition of CYP1A2 (unknown origin) at 3 uM; type: ADME
T1 sequence (P05177 whole entry): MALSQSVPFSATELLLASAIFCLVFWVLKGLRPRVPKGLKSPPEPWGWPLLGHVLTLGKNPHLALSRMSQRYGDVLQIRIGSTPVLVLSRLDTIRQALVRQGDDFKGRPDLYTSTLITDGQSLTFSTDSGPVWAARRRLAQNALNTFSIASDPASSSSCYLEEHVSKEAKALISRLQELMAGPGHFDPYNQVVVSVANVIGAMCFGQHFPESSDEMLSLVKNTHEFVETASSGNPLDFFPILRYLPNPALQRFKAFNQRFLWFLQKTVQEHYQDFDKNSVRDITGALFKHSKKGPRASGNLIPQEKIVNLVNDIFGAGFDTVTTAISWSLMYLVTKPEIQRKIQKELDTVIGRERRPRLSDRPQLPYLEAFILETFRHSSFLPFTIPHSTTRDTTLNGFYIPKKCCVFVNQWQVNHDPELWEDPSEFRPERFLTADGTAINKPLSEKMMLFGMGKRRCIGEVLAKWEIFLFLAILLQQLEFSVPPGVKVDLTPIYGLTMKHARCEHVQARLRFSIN

[5] = Half life in Sprague-Dawley rat at 2 mg/kg, iv; type: ADME, organism-based; set-up: dose 2 mg/kg, route intravenous; details: in vivo
[6] = Bioavailability in Sprague-Dawley rat at 10 mg/kg, sc; type: ADME, organism-based; details: in vivo
Cytochrome P450 2C8 = molecular target: T2, Cytochrome P450 2C8 (Homo sapiens, UniProt P10632); test: Inhibition of CYP2C8 (unknown origin) at 3 uM; type: ADME
T2 sequence (P10632 whole entry): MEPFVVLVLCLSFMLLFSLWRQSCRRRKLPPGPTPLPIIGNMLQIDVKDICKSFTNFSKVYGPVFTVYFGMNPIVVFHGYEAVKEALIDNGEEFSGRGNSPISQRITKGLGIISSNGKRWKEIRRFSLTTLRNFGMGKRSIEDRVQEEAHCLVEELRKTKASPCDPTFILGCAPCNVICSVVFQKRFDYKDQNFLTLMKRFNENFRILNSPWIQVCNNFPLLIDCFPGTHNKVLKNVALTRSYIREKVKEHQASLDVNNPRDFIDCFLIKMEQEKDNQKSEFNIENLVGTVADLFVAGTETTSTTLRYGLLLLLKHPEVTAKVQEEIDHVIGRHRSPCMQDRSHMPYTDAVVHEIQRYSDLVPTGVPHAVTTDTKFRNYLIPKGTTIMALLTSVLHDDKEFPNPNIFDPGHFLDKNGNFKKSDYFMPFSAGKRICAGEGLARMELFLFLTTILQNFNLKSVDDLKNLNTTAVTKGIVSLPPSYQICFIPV

[7] = AUC in Sprague-Dawley rat at 6 mg/kg, po; type: ADME, organism-based; set-up: dose 6 mg/kg, route oral; details: plasma
Rattus norvegicus [8] = test: Toxicity in Sprague-Dawley rat assessed as effect on serum triglyceride level at 3 to 100 mg/kg, sc qd for 14 days relative to vehicle-treated control; type: organism-based; set-up: dose 3-100 mg/kg, route subcutaneous; details: in vivo, 336 h
[9] = Tmax in Sprague-Dawley rat at 10 mg/kg, sc; type: ADME, organism-based; set-up: dose 10 mg/kg, route subcutaneous; details: in vivo
Rattus norvegicus [10] = test: Toxicity in Sprague-Dawley rat assessed as effect on serum luteinizing hormone level at 3 to 10 mg/kg, sc qd for 14 days relative to vehicle-treated control; type: organism-based; set-up: dose 3-10 mg/kg, route subcutaneous; details: in vivo, 336 h
[11] = Tmax in Sprague-Dawley rat at 6 mg/kg, po; type: ADME, organism-based; set-up: dose 6 mg/kg, route oral; details: in vivo
Androgen receptor [12] = molecular target: T3, Androgen receptor (Homo sapiens, UniProt P10275); test: Binding affinity to human AR NTD (1 to 561 aa) expressed in CV1 cells coexpressing human AR-LBD (644-919 aa) assessed as N/C-termini interaction by androgenic assay; type: cell-based, CV-1
T3 sequence (P10275 whole entry): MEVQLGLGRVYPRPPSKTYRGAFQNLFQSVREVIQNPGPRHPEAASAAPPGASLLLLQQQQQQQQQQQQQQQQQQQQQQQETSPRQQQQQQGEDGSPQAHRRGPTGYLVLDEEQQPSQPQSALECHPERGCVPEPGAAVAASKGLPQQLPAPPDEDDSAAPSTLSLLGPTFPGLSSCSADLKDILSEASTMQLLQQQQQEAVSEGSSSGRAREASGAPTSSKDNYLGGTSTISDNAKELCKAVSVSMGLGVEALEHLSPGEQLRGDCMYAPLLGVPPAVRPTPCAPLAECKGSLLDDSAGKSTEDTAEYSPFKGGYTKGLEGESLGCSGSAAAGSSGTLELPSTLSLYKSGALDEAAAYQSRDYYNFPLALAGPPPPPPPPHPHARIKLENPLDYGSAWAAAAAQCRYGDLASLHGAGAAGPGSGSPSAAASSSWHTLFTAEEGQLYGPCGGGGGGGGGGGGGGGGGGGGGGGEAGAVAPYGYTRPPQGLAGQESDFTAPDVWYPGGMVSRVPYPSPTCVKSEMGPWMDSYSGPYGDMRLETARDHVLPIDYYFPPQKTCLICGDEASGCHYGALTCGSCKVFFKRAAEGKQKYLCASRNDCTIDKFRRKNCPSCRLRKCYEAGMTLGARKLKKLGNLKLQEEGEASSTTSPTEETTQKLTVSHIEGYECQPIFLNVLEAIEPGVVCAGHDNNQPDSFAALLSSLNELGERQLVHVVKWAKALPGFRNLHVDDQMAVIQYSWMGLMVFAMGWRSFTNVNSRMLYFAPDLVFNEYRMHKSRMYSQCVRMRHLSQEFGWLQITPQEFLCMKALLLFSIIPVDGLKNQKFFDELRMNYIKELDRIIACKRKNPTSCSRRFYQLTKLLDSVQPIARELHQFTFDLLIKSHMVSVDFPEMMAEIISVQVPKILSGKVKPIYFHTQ

[13] = Oral bioavailability in Sprague-Dawley rat at 6 mg/kg; type: ADME, organism-based; details: in vivo
[14] = Toxicity in sc dosed Sprague-Dawley rat administered qd for 14 days; type: organism-based; details: in vivo
Rattus norvegicus [15] = test: Toxicity in Sprague-Dawley rat assessed as effect on serum HDL level at 3 to 100 mg/kg, sc qd for 14 days relative to vehicle-treated control; type: organism-based; set-up: dose 3-100 mg/kg, route subcutaneous; details: in vivo, 336 h
[16] = molecular target: Voltage-gated inwardly rectifying potassium channel KCNH2 (Homo sapiens, UniProt Q12809); test: Binding affinity to human ERG by dofetilide binding assay
Voltage-gated inwardly rectifying potassium channel KCNH2, sequence (Q12809 whole entry): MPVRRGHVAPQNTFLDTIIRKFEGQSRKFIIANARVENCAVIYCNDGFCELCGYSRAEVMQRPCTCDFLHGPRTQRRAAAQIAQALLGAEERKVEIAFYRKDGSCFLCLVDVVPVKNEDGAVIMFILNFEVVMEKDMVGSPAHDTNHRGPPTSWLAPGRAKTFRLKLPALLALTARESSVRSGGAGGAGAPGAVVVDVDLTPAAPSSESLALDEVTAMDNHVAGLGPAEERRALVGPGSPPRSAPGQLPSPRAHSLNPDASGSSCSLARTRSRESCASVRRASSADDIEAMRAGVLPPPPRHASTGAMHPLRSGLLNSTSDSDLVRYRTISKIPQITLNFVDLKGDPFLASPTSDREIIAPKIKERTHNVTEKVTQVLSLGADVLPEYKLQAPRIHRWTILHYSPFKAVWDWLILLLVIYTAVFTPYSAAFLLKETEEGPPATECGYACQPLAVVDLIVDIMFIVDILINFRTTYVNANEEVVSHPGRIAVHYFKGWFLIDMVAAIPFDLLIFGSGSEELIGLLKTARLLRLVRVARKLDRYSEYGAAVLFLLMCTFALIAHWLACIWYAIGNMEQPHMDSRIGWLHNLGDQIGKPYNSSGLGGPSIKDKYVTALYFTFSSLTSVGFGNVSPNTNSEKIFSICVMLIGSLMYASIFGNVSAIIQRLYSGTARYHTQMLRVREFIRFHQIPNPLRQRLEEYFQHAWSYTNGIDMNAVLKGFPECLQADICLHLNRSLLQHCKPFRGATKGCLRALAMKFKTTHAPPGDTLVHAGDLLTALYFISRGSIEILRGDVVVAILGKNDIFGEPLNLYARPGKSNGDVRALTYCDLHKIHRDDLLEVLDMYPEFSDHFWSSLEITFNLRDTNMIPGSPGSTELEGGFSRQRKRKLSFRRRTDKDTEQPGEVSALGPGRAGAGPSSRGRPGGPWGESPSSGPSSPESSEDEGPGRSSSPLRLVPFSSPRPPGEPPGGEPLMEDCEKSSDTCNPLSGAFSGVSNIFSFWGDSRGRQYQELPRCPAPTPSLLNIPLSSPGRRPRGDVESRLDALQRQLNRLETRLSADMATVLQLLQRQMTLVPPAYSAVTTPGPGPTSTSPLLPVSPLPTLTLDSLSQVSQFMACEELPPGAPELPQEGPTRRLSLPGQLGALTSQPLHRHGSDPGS

[17] = Aqueous solubility of the compound at pH 6.5; type: physicochemical
Androgen receptor [18] = molecular target: T3, Androgen receptor; test: Agonist activity at human AR expressed in CV1 cells after 17 hrs by luciferase reporter gene assay; type: cell-based, CV-1
[19] = Volume of distribution at steady state in Sprague-Dawley rat at 2 mg/kg, iv; type: ADME, organism-based; set-up: dose 2 mg/kg, route intravenous; details: in vivo, read-out: Vdss
[20] = Clearance in human liver microsomes; type: ADME; details: read-out: CLH
Rattus norvegicus [21] = test: Increase in levator ani muscle weight in orchidectomized Sprague-Dawley rat at 3 to 30 mg/kg, sc qd for 4 days relative to vehicle-treated control; type: functional, organism-based
Cytochrome P450 2D6 = Cytochrome P450 2D6 (Homo sapiens, UniProt P10635); test: Inhibition of CYP2D6 (unknown origin) at 3 uM; type: ADME
Cytochrome P450 2D6, sequence (P10635 whole entry): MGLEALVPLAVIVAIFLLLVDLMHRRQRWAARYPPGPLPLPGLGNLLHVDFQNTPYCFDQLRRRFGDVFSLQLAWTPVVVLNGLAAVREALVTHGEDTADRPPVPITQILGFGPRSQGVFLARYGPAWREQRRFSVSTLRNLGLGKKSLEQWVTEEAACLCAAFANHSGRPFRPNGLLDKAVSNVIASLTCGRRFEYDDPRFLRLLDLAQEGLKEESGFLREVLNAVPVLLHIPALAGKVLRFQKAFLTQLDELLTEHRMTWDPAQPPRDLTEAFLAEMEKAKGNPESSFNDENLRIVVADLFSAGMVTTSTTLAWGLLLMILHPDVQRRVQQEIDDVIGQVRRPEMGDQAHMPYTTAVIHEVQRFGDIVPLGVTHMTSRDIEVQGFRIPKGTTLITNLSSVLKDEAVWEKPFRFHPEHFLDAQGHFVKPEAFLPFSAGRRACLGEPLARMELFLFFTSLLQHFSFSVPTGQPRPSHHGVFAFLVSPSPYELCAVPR

[22] = Cmax in Sprague-Dawley rat at 10 mg/kg, sc; type: ADME, organism-based; set-up: dose 10 mg/kg, route subcutaneous; details: in vivo
Rattus norvegicus [23] = test: Increase in seminal vesicle weight in orchidectomized Sprague-Dawley rat at 3 to 30 mg/kg, sc qd for 4 days relative to vehicle-treated control; type: ADME, organism-based; set-up: dose 3-30 mg/kg, route subcutaneous; details: in vivo, 96 h
Androgen receptor [24] = molecular target: T3, Androgen receptor; test: Displacement of [3H]mibolerone from full length human AR expressed in COS cells after 3.5 hrs by liquid scintillation counting; type: cell-based
Cytochrome P450 3A4 = Cytochrome P450 3A4 (Homo sapiens, UniProt P08684); test: Inhibition of CYP3A4 (unknown origin) at 3 uM; type: ADME
Cytochrome P450 3A4, sequence (P08684 whole entry): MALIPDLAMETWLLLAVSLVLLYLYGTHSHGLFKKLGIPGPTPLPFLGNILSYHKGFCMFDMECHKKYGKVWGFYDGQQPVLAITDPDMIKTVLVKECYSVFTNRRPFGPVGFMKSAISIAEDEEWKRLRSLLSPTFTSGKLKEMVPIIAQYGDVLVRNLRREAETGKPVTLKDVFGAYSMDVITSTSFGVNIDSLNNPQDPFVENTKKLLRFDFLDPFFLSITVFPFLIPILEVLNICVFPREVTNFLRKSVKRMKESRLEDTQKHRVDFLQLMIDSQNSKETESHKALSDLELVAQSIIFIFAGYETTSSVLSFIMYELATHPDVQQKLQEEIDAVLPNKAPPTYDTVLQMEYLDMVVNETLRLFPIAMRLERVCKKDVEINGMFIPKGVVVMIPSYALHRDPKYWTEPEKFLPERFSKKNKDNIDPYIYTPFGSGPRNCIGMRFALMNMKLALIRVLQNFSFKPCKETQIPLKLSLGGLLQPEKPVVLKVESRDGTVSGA

[25] = Cytotoxicity against human THLE cells; type: cell-based
Rattus norvegicus [26] = test: Increase in prostate tissue weight in orchidectomized Sprague-Dawley rat at 3 to 30 mg/kg, sc qd for 4 days relative to vehicle-treated control; type: ADME, organism-based, Prostate gland; set-up: dose 3-30 mg/kg, route subcutaneous; details: in vivo, 96 h
[27] = Cmax in Sprague-Dawley rat at 6 mg/kg, po; type: ADME, organism-based; set-up: dose 6 mg/kg, route oral; details: in vivo
Rattus norvegicus [28] = test: Toxicity in Sprague-Dawley rat assessed as effect on serum luteinizing hormone level at 100 mg/kg, sc qd for 14 days relative to vehicle-treated control; type: organism-based; set-up: dose 100 mg/kg, route subcutaneous; details: in vivo, 336 h
[29] = Half life in Sprague-Dawley rat at 10 mg/kg, sc; type: ADME, organism-based; set-up: dose 10 mg/kg, route subcutaneous; details: in vivo
[30] = AUC in Sprague-Dawley rat at 2 mg/kg, iv; type: ADME, organism-based; set-up: dose 2 mg/kg, route intravenous; details: plasma

C[C@](O)(COc1ccc(F)cc1)C(=O)N1CCc2c(C#N)cccc21
Activity (Rattus norvegicus [1]): Non-toxic
Activity (Rattus norvegicus [2]): Non-toxic
AUC [3]: 2030 ng·h/mL
half-life [4]: 5 h
inhibition (INH) (Cytochrome P450 2C9): Not Active
inhibition (INH) (Cytochrome P450 1A2): Not Active
half-life [5]: 5 h
bioavailability [6]: 37%
inhibition (INH) (Cytochrome P450 2C8): Not Active
AUC [7]: 3750 ng·h/mL
Activity (Rattus norvegicus [8]): Non-toxic
Tmax [9]: 4 h
Activity (Rattus norvegicus [10]): Non-toxic
Tmax [11]: 8 h
EC50 (Androgen receptor [12]): > 10000 nM
bioavailability [13]: > 100%
MTD at 336 h [14]: 100 mg/kg
Activity (Rattus norvegicus [15]): Non-toxic
IC50 [16]: > 100000 nM
solubility [17]: 14 µM (≈ 4.76 µg/mL)
EC50 (Androgen receptor [18]): 2.5 nM
Vd [19]: 6 L/kg
microsomal CLint [20]: 21 µL/min/mg
Activity (Rattus norvegicus [21]): Active
inhibition (INH) (Cytochrome P450 2D6): Not Active
Cmax [22]: 166 ng/mL
Activity (Rattus norvegicus [23]): Non-toxic
IC50 (Androgen receptor [24]): 12.7 nM
inhibition (INH) (Cytochrome P450 3A4): Not Active
IC50 [25]: > 300000 nM
Activity (Rattus norvegicus [26]): Non-toxic
Cmax [27]: 254 ng/mL
Activity (Rattus norvegicus [28]): Non-toxic
half-life [29]: 6 h
AUC [30]: 1100 ng·h/mL
